Test results from patent publication US20060292254A1, “Orally and nasally administered appetite suppressant” (priority 2005, published 2006).

System: food intake in food deprived rats
Assay: Effect of intranasal administration of capsaicin on food intake in food deprived rats
Format: in vivo, Male Sprague-Dawley rats
Conditions: intra-nasal liquid solution, 0.02-2 mg/kg of body weight, food introduced one hour after administration, consumption determined after 4, 12 and 24 hours, mush diet
From the text: Male Sprague-Dawley rats, 150-175 g at the start of the experiments (Charles River Laboratories, Wilmington, Mass.) were housed individually in suspended wire mesh cages. Rats had ad libitum access to tap water and food (Rodent Laboratory Chow No. 5001-pellet form, Purina) on non-testing days. A mush diet, used for experiments on food-deprived animals, and composed of equal parts by weight of ground rodent chow (Purina, #5001-meal form) and a 4% nutrient agar solution (Teklad Diets) was presented to the animals in glass jars. This agar-based chow diet allows for a more accurate measurement of food intake, and has been shown previously to be sufficient for maintaining normal rat growth.
Capsaicin was prepared as a liquid solution and administered intra-nasally, The drug dosage ranged from 0.02-2 mg/kg of body weight. Control animals were administered placebo formulation without capsaicin. One hour after administration, pre-weighed food jars were introduced into the cage and a sheet of clean white paper placed under each cage to catch any spillage. The amount of food consumed after 4, 12 and 24 hours was determined to the nearest 0.01 g.

COc1cc(CNC(=O)CCCC/C=C/C(C)C)ccc1O [Capsaicin]
amount of food consumed versus placebo: significantly less food
